In the NIST ThermoML archive (doi:10.1021/je800517r):
Values joined by “and” are separate entries in the source; they are usually repeats but may differ in a detail not shown here. Identical values can stand only once. Numbers after ± are expanded uncertainties.

Assay: activity coefficient (dimensionless); of the first substance listed, at infinite dilution; xn = mol fraction of the nth substance listed
Conditions: Liquid, comparative ebulliometry, circulation still, and differential distillation method, x1 = 0

Q: Which results are given for `CC(=O)N(C)C` [N,N-dimethylethanamide] + O?
A: activity coefficient (343.15 K): 1.27 ± 0.08; activity coefficient (343.51 K): 1.29 ± 0.08; activity coefficient (349.03 K): 1.46 ± 0.09; activity coefficient (351.15 K): 1.37 ± 0.08; activity coefficient (353.5 K): 1.72 and 1.79; activity coefficient (363.87 K): 2.06 and 2.24; activity coefficient (370.86 K): 2.12 ± 0.13; activity coefficient (372.28 K): 2.05 ± 0.12

Q: What does the source list for `CNC(C)=O` [N-methylacetamide] + O?
A: activity coefficient (333.15 K): 1.7 ± 0.1; activity coefficient (343.15 K): 1.78 ± 0.11; activity coefficient (353.15 K): 1.82 ± 0.11

Q: Which results are given for `CNC=O` [N-methylformamide] + O?
A: activity coefficient (333.15 K): 1.37 ± 0.08; activity coefficient (343.15 K): 1.42 ± 0.09; activity coefficient (353.15 K): 1.44 ± 0.09; activity coefficient (372.65 K): 1.65 ± 0.1

Q: Which activity coefficient (343.73 K) does the source give for `CN(C)C=O` [dimethylformamide] + O here?
A: The activity coefficient was 1.23 ± 0.07.

Q: And the activity coefficient (349.05 K)?
A: Its activity coefficient is 1.27 ± 0.08.

Q: And the activity coefficient (353.45 K)?
A: The activity coefficient was 1.3 ± 0.08.

Q: What about the activity coefficient (357.91 K) of the same molecule?
A: Its activity coefficient is 1.3 ± 0.08.

Q: And the activity coefficient (358.5 K)?
A: The activity coefficient was 1.36 ± 0.08.

Q: And the activity coefficient (363.82 K)?
A: Its activity coefficient is 1.35 ± 0.08.

Q: And the activity coefficient (368.38 K)?
A: The activity coefficient was 1.59 ± 0.1.

Q: What about the activity coefficient (371.62 K) of the same molecule?
A: The activity coefficient was 1.54 ± 0.09.

Q: What about the activity coefficient (372 K) of the same molecule?
A: The activity coefficient was 1.66 ± 0.1.
